Data as given in patent US20230026616A1, “PYRIMIDOIMIDAZOLE COMPOUNDS USED AS DNA-PK INHIBITORS” (MEDSHINE DISCOVERY INC., priority 2019, published 2023).
Marks after values point to notes of the source that are not given here.

Legend:
[1] = Pharmacokinetic evaluation (1): cassette PK in Balb/c male mice, plasma; type: in vivo; settings: for AUC(0-t) / C0 / clearance / half-life / Vd / Cmax / Tmax: male, Balb/c; for AUC(0-t) / C0 / clearance / half-life / Vd / Cmax / Tmax / Tlast: mouse plasma; for Vd: read-out: Vdss; for Tmax: read-out: Tmax; for F: mouse
Description: Test compounds were mixed with 10% dimethyl sulfoxide/50% polyethylene glycol 200/40% water (compounds 1, 4, 10, 17) or 20% N,N-dimethylacetamide/80% water (compound 5), vortexed and sonicated to prepare a nearly clear solution of 0.08 mg/mL (compounds 1, 4, 10, 17) or 0.50 mg/mL (compound 5), then filtered through a microporous membrane for next step. Balb/c male mice of 18 to 20 grams were selected and administered intravenously with the candidate compound solution at a dose of 0.4 (compounds 1, 4, 10, 17) or 1 mg/kg (compound 5). Test compounds were mixed with 10% dimethyl sulfoxide/50% polyethylene glycol 200/40% water (compounds 1, 4, 10, 17) or 20%-hydroxypropyl-β-cyclodextrin (compound 5), vortexed and sonicated to prepare a nearly clear solution of 0.2 mg/mL (compounds 1, 4, 10, 17) or 1 mg/mL (compound 5), then filtered through a microporous membrane for next step. Balb/c male mice of 18 to 20 grams were selected and orally administered with the candidate compound solution at a dose of 2 (compounds 1, 4, 10, 17) or 5 mg/kg (compound 5). Whole blood was collected for a certain period of time, and plasma was prepared, then drug concentration was detected by LC-MS/MS method, and pharmacokinetic parameters were calculated by Phoenix WinNonlin software (Pharsight, USA).
(§1) IV: intravenous injection; PO: oral; C0: instantaneous […] concentration after intravenous injection; Cmax: highest plasma concentration after administration; Tmax: time required to reach peak of drug concentration after administration; T1/2: time required for the plasma drug concentration to decrease by half, Vdss: apparent volume of distribution, refers to the proportional constant of the drug dose in vivo and the blood drug concentration when the drug reaches a dynamic equilibrium in vivo. Cl: clearance rate, refers to the […] cleared from the body per unit time; Tlast: time at the last detection point; AUC0-last: area under the drug-time curve, refers to the area covered by the plasma concentration curve and the time axis; F: a measure of the speed and degree of drug absorption into the blood circulation, which is an important indicator for evaluating the degree of drug absorption.

[2] = Pharmacokinetic and brain exposure evaluation in rats; type: in vivo, SD male rats; settings: for Vd: read-out: Vdss
From the text: as §1
Test compounds were mixed with 10% dimethyl sulfoxide/50% polyethylene glycol 200/40% water, vortexed and sonicated to prepare a nearly clear solution of 0.5 mg/mL (compound 5) or 1 mg/mL (compound 17), then filtered through a microporous membrane for next step. SD male rats were selected and administered intravenously with the candidate compound solution at a dose of 1 mg/kg (compound 5) or 2 mg/kg (compound 17). Test compounds were mixed with 10% dimethyl sulfoxide/50% polyethylene glycol 200/40% water, vortexed and sonicated to prepare a homogeneous suspension of 4 mg/mL (compound 5) or a nearly clear solution of 1 mg/mL (compound 17). SD male rats were selected and orally administered with the candidate compound solution at a dose of 40 mg/kg (compound 5) or 10 mg/kg (compound 17). Whole blood, cerebrospinal fluid, brain tissue were collected for a certain period of time and plasma was prepared, and the drug concentration was detected by LC-MS/MS method, and the pharmacokinetic parameters were calculated by Phoenix WinNonlin software (Pharsight, USA).

[3] = Pharmacokinetic evaluation in mice (2), plasma; type: in vivo, Balb/c male mice
From the text: as §1
Test compounds were mixed with […]/50% polyethylene glycol 200/40% water, vortexed and sonicated to prepare a nearly clear solution of 0.4 mg/mL (compound 5), then filtered through a microporous membrane for next step. Balb/c male mice of 18 to 20 grams were selected and administered intravenously with the candidate compound solution at a dose of 2 mg/kg. Test compounds were mixed with 10% dimethyl sulfoxide/50% polyethylene glycol 200/40% water, vortexed and sonicated to prepare a nearly clear solution of 1 mg/mL, then filtered with a microporous membrane for next step. Balb/c male mice of 18 to 20 grams were selected and orally administered with the candidate compound solution at a dose of 10 mg/kg. Whole blood was collected for a certain period of time, and plasma was prepared, then drug concentration was detected by LC-MS/MS method, and pharmacokinetic parameters were calculated by Phoenix WinNonlin software (Pharsight, USA).

[4] = Pharmacokinetic evaluation in cynomolgus monkeys; type: in vivo, Male cynomolgus monkeys
From the text: as §1
Test compound was mixed with 10% dimethyl sulfoxide/50% polyethylene glycol 200/40% water, vortexed and sonicated to prepare a nearly clear solution of 1 mg/mL, then filtered through a microporous membrane for next step. Male cynomolgus monkeys were selected and administered intravenously with the candidate compound solution at a dose of 1 mg/kg. Test compound was mixed with 10% dimethyl sulfoxide/50% polyethylene glycol 200/40% water, vortexed and sonicated to prepare a nearly clear solution of 1 mg/mL, then filtered with a microporous membrane for next step. Male cynomolgus monkeys were selected and orally administered with the candidate compound solution at a dose of 5 mg/kg. Whole blood was collected for a certain period of time, and plasma was prepared, then drug concentration was detected by LC-MS/MS method, and pharmacokinetic parameters were calculated by Phoenix WinNonlin software (Pharsight, USA).

[5] = male, SD, 1 mg/kg, rat plasma, IV 1 mpk
[6] = male, SD, 40 mg/kg, rat, PO 40 mpk, Cerebrospinal fluid
[7] = male, SD, 40 mg/kg, rat, PO 40 mpk, Plasma
[8] = male, Balb/c, 2 mg/kg, mouse plasma, IV 2 mpk
[9] = male, Balb/c, 10 mg/kg, mouse plasma, PO 10 mpk
[10] = male, 1 mg/kg, cynomolgus monkey plasma, IV 1 mpk
[11] = male, 5 mg/kg, cynomolgus monkey plasma, PO 5 mpk
[12] = male, SD, 2 mg/kg, rat plasma, IV 2 mpk
[13] = male, SD, 10 mg/kg, rat plasma, PO 10 mpk

## Cc1cc2ncnn2cc1Nc1ncc2c(n1)n(N1CC3CCC(C1)O3)c(=O)n2C [Compound 5]
[1]; IV 1 mg/kg
  AUC(0-t): 1.66 µM·h
  C0: 3.6 µM
  clearance: 24.7 mL/min/kg
  half-life: 1.28 h
  Vd: 1.49 L/kg
[1]; PO 5 mg/kg
  AUC(0-t): 3.49 µM·h
  Cmax: 2.17 µM
  half-life: 3.85 h
  Tmax: 0.25 h
  Tlast: 10 h
[1]; PO 5 mg/kg vs IV 1 mg/kg
  F: 44.5%
[2]; [5]
  AUC(0-t): 2.38 µM·h
  C0: 3.04 µM
  clearance: 17 mL/min/kg
  half-life: 1.45 h
  Vd: 1.41 L/kg
[2]; male, SD, 40 mg/kg, rat, PO 40 mpk, Brain tissue
  Tmax: 4 h
[2]; [6]
  AUC(0-t): 7.74 µM·h
  Tmax: 2 h
[2]; male, SD, 40 mg/kg, rat, PO 40 mpk, Cerebrospinal fluid, read-out: Cmax
  Cmax: 1.26 µM
[2]; [7]
  AUC(0-t): 59.9 µM·h
  Tmax: 2 h
[2]; male, SD, 40 mg/kg, rat, PO 40 mpk, Plasma, read-out: Cmax
  Cmax: 10.2 µM
[2]; rat plasma, IV 1 mpk
  Tlast: 8 h
[2]; rat, PO 40 mpk, Brain tissue
  AUC0-last: 6369^b h*nmol/kg
  Cmax: 1019^a nmol/kg
  Tlast: 8 h
[2]; rat, PO 40 mpk, Cerebrospinal fluid
  Tlast: 8 h
[2]; rat, PO 40 mpk, Plasma
  Tlast: 8 h
[3]; [8]
  AUC(0-t): 3.45 µM·h
  C0: 4.74 µM
  clearance: 23.7 mL/min/kg
  half-life: 0.733 h
[3]; male, Balb/c, 2 mg/kg, mouse plasma, IV 2 mpk, read-out: Vdss
  Vd: 1.07 L/kg
[3]; [9]
  AUC(0-t): 23.2 µM·h
  Cmax: 11.4 µM
  Tmax: 0.5 h
  half-life: 0.85 h
[3]; mouse plasma, IV 2 mpk
  Tlast: 8 h
[3]; mouse plasma, PO 10 mpk
  Tlast: 10 h
[3]; mouse, PO 10 mpk vs IV 2 mpk
  F: 134%
[4]; cynomolgus monkey plasma, PO 5 mpk
  Tlast: 12 h
[4]; cynomolgus monkey, PO 5 mpk vs IV 1 mpk
  F: 115%
[4]; [10]
  AUC(0-t): 2.44 µM·h
  C0: 2.29 µM
  clearance: 16.8 mL/min/kg
  half-life: 3.6 h
[4]; male, 1 mg/kg, cynomolgus monkey plasma, IV 1 mpk, read-out: Vdss
  Vd: 1.52 L/kg
[4]; [11]
  AUC(0-t): 14 µM·h
  Cmax: 4.5 µM
  Tmax: 1.17 h
  half-life: 1.35 h

## Cc1cc2nncn2cc1Nc1ncc2c(n1)n(N1CC3CCC(C1)O3)c(=O)n2C [Compound 17]
[1]; IV 0.4 mg/kg
  AUC(0-t): 0.47 µM·h
  C0: 0.748 µM
  clearance: 34.7 mL/min/kg
  half-life: 0.559 h
  Vd: 1.39 L/kg
  Tlast: 4 h
[1]; PO 2 mg/kg
  AUC(0-t): 3.4 µM·h
  Cmax: 1.54 µM
  half-life: 0.81 h
  Tmax: 1 h
  Tlast: 8 h
[1]; PO 2 mg/kg vs IV 0.4 mg/kg
  F: 144%
[2]; [12]
  AUC(0-t): 4.86 µM·h
  C0: 5.3 µM
  clearance: 16.9 mL/min/kg
  half-life: 1.16 h
  Vd: 1.4 L/kg
[2]; [13]
  AUC(0-t): 32.5 µM·h
  Tmax: 2 h
  half-life: 2.29 h
[2]; male, SD, 10 mg/kg, rat plasma, PO 10 mpk, read-out: Cmax
  Cmax: 6.25 µM
[2]; rat plasma, IV 2 mpk
  Tlast: 8 h
[2]; rat plasma, PO 10 mpk
  Tlast: 8 h
